For this assay, the target named is T1, Interleukin-1 receptor-associated kinase 4 (Homo sapiens, UniProt Q9NWZ3).
T1 sequence (Q9NWZ3 whole entry): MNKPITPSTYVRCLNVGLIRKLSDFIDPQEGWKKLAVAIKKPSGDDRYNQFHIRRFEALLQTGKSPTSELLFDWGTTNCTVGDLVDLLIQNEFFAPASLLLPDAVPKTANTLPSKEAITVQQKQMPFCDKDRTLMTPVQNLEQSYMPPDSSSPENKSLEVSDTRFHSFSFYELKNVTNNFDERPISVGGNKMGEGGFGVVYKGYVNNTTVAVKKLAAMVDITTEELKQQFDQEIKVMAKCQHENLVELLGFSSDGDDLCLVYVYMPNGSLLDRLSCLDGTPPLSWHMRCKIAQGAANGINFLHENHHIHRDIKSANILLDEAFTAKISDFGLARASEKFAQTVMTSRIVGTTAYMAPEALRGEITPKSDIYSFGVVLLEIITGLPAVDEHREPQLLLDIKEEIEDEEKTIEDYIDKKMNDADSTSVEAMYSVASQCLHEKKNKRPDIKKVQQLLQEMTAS
Briefly: IRAK4 Biochemical HTRF Kinase Assay. How it is done:
The binding capacities of certain bifunctional compounds of Formula (I) were determined using the CisBio HTRF KinEASE STK S1 Kit (#62ST1PEB, contains 5× Kinase buffer, 1× Detection Buffer, anti-phospho-serine/threonine-cryptate, Streptavidin-XL665, and STK-S1), which measures the phosphorylation of a biotinylated peptide substrate by IRAK4, according to the manufacturer's protocol. Briefly, test compounds in DMSO were serially diluted into 384 Plus White Proxiplate (PerkinElmer, #6008280) using a Labcyte Echo 550 Liquid Handler, at a concentration of 50× final in 200 nL of 100% DMSO. 7.8 μl of kinase solution, containing 1.28 nM IRAK4 in 1× Kinase Buffer (supplemented with 3 mM MgCl2, 0.01% Triton X-100, and 1 mM DTT) was added to each compound containing well and incubated at ambient temperature for 30 min. 2 μl of a reaction solution containing 5 μM STK-S1, 10 mM ATP, and 10 mM MgCl2 were added to each well to a final volume of 10 μl. Assay controls include wells containing kinase with no compound (DMSO only) and wells containing no kinase and no compound (DMSO only). The reactions were allowed to proceed at ambient temperature for 90 minutes. […] The plates were incubated for 60 minutes at ambient temperature and then read on an Envision Multilabel Reader (PerkinElmer). […]
For orientation: TR-FRET usually uses a lanthanide donor and a delayed reading to cut background.

The structures appear in SMILES notation.

As for `CNc1cc(-c2ccc3cc(C#N)cnn23)ncc1-c1nnc(C23CCC(NC(=O)C4CCN(c5cccc6c5C(=O)N(C5CCC(=O)NC5=O)C6=O)CC4)(CC2)CC3)s1` (stereo unspecified) [US12528814, Example 136], the IC50 is 1.6 nM. That is a single-digit nanomolar value.

By IC50 is commonly meant the point on the concentration scale where inhibition reaches its midpoint. A lower IC50 goes with higher potency.

Values taken from BindingDB's records for patent US12528814 (Nurix Therapeutics, 2026).
